“Also recorded” adds a separate entry of the source.
Legend:
Format in all cases: cell-based, human
[1] = system: SW620-src colorectal cancer cells; experiment: Cell viability assay (MTT); details: 72h, varying concentrations, much higher than those used in biological activity assays, Fig. 13
Description: (§1) SW620-src colorectal cancer cells were a kind gift of Dr. Serge Roche group. These cells have been stably transfected with human Src as described in Aponte, E., et al. (2021). "Regulation of Src tumor activity by its N-terminal intrinsically disordered region." Oncogene, 41: 960-970.. SW620-src colorectal cancer cells were grown in DMEM supplemented with 10% FBS (Gibco 10500-064), 1% GlutaMAX (Gibco 35050038) 1% P/S (Corning 30-002-CI). Cell lines were grown at 37°C with an atmosphere of 95% air, 5% CO2. All the reagents used during cell culture procedures were heated to 37°C in a water bath before its use. Before each assay, the absence of mycoplasma was tested according to a previously described protocol (Molla Kazemiha, V., et al. (2009). "PCR-based detection and eradication of mycoplasmal infections from various mammalian cell lines: a local experience." Cytotechnology 61(3): 117-124).
Cell viability was measured by MTT assay as described before (Kamiloglu, S., et al. (2020). "Guidelines for cell viability assays." Food Frontiers 1(3): 332-349).. […]
SW620-src cells were seeded into 96-well plates containing 100 µL of the growth medium at a density of 10000 cells/well for and cultured for one day. […] Afterwards, the plates were read under 570/690 nm wavelengths by plate reader (Synergy HTX, Biotek).

[2] = system: SW620-src colorectal cancer cells; experiment: Wound healing assay (scratch, cell migration); details: Src transformed SW620 cells, 24h after scratch; Fig. 12
Description: as §1, with “Before each assay, the absence of mycoplasma was tested according to a previously described protocol (Molla Kazemiha, V., et al. (2009). "PCR-based detection and eradication of mycoplasmal infections from various mammalian cell lines: a local experience." Cytotechnology 61(3): 117-124).” left out
Cells were plated into 24-well plate at density of 500,000 cells/well and were cultured until they reach a 100% confluence. […] Each well was photographed in the same site to quantify cell migration after 24 hours. […] The obtained images were analyzed by Imaged software (Schindelin, J., et al. (2012). "Fiji: an open-source platform for biological-image analysis." Nature Methods 9(7): 676-682) using the MRI wound healing tool plugin (Suarez-Arnedo, A., et al. (2020). "An image J plugin for the high throughput image analysis of in vitro scratch wound healing assays." PLOS ONE 15(7): e0232565) . […]

[3] = system: SW620-src colorectal cancer cells; experiment: Soft agar colony formation assay; details: Src transformed SW620 colorectal cancer cells, 5 µM of Drugs, 3 weeks, colonies with >50 cells counted; Fig. 11
Description: as §1
Cells were plated at density of 10,000 per well in 24-well plates in 0.3% soft agar on top of a base layer of 0.7% agar. The cells were treated with 5 µM of Drugs, and the plates were incubated for 3 weeks, replacing the media every week. […] These experiments were repeated twice with 4 replicates per group, and only colonies with >50 cells were counted.

Row | Compound | cell viability [1] | migration of cancer cells (scratch wound healing) [2] | colony formation [3]
1 | COC(=O)NC(C(=O)N1CCC[C@H]1c1cn(-c2ccc(-c3ccc(-n4cc([C@@H]5CCCN5C(=O)C(NC(=O)OC)C(C)C)nn4)cc3)cc2)nn1)C(C)C (stereo partly drawn) [V-Me, Moc-Val-1-Val-Moc] | do not significantly affect cell viability | significantly reduced; also recorded: significantly impair | significantly reduced; also recorded: significantly decrease
2 | Moc-Leu-Lys-1-Lys-Leu-Moc [LK-Me] |  | does not show significant biological activity; also recorded: no effect | does not show significant biological activity; also recorded: no effect
3 | COC(=O)N[C@@H](CO)C(=O)N[C@@H](CC(C)C)C(=O)N[C@@H](CCC(=O)O)C(=O)N1CCC[C@H]1c1cn(-c2ccc(-c3ccc(-n4cc([C@@H]5CCCN5C(=O)[C@H](CCC(=O)O)NC(=O)[C@H](CC(C)C)NC(=O)[C@H](CO)NC(=O)OC)nn4)cc3)cc2)nn1 [SLE-Me, Moc-Ser-Leu-Glu-1-Glu-Leu-Ser-Moc] | do not significantly affect cell viability |  | 
